Laboratory results as given in patent US20140235578A1, “METHODS FOR TREATING NEOPLASIA AND FOR IDENTIFYING COMPOSITIONS USEFUL IN SUCH THERAPY” (priority 2007, published 2014).
Where a SMILES comes first, the peptide text is derived from it. The star is where a group is joined. Cbz = O=C(OCc1ccccc1)*

Tests used:
Top2β = Top2β protein level by Western blotting in H9C2 cells; type: cell-based; settings: 100 μM, 0-6 hrs
Description: (§1) The amount of Top2 cleavage complexes was measured by a band depletion assay as described in Materials and Methods. Cells were lysed either immediately or after reversal of the Top2 cleavage complexes (labeled R+250). Cell lysates were analyzed by Western blotting using anti-Top2α/Top2β or anti-α-tubulin antibody. […] Cells were then lysed and protein levels of Top2α, and Top2β isozymes were determined by Western blotting. […] Cell lysates were immunoblotted using anti-Top2β antibody. D, H9C2 cells were treated with ICRF187 (100 μM) for 4 hrs, followed by treatment with doxorubicin (Doxo, 0, 0.5 and 1 μM) for 1.5 hrs. Neutral comet assay was then performed as described in Materials and Methods. The average comet tail moments were plotted as histograms (mean±SEM). * p-value<0.001, t-test.

Top2α = molecular target: T1, Top2α (Rattus norvegicus, UniProt P41516); test: Top2α protein level by Western blotting in H9C2 cells; type: cell-based; settings: 100 μM, 0-6 hrs
T1 construct: endogenous in cells; host or cells: H9C2 cardiomyocytes
Description: as §1

SV40-transformed MEFs = test: Plasmid integration assay; type: cell-based, mouse; settings: 2 μM, added 30 min prior to and during transfection
Description: Transformed top2β^+/Δ2 and top2β^Δ2/Δ2 MEFs were plated in six-well plates (4×10^5 cellsper well) one day prior to transfection. Transfection was performed with EcoRI-linearized pUCSV-BSD plasmid (containing the blasticidin resistance gene) using the Cellfectin (Invitrogen) transfection reagent (0.1 μg DNA+2 μl Cellfectin). VP-16 was added at the time of transfection. After 6 hr, cells were washed and trypsinized. A small aliquot was removed, reseeded into fresh medium and grown without the selection agent for survival determination. The rest of the cells were reseeded into fresh medium in a 10 cm plate. After 24 hr, the selection agent blasticidin (3 μg/ml) was added. Colonies were stained with methylene blue and counted after 10 days. Where indicated, the proteasome inhibitor MG132 (2 μM) was added 30 min prior to and during transfection. Integration frequency was determined as the ratio of the number of blasticidin-resistant colonies and the number of surviving cells.

H9C2 cardiomyocytes = type: cell-based
Description: Vitamin C and NAC were added 30 min prior to doxorubicin. Cell lysates were then analyzed by Western blotting using anti-γ-H2AX or anti-α-tubulin antibody. […] Cell lysates were then analyzed by Western blotting (upper panel) using anti-γ-H2AX or anti-α-tubulin antibody. Quantification of γ-H2AX signals is shown in the lower panel. C, H9C2 cells were treated with 0.1% DMSO (labeled DMSO), bortezomib (1 μM) or MG132 (4 μM) for 30 min, followed by co-treatment with either 0.1% DMSO (labeled control) or 0.5 μM doxorubicin (labeled Doxo) for 1.5 hrs. Neutral comet assay was then performed as described in Materials and Methods. The average comet tail moments were plotted as histograms (mean±SEM). *p-value<0.001, t-test.
as §1, with “Neutral comet assay was then performed as described in Materials and Methods. The average comet tail moments were plotted as histograms (mean±SEM). * p-value<0.001, t-test.” left out

MEFs = test: Neutral comet assay of VP-16-induced DSBs; type: cell-based, mouse; settings: co-treatment, data not shown
Description: Both wild type and Top2β knockout mouse embryonic fibroblasts (MEFs) were treated with either DMSO (solvent control) or VP-16 (250 μM) for 90 min, followed by incubated in drug-free media for 30 min. Neutral comet assay was then performed. Tail moment (average from 100 cells) was determined for each treatment.

T1 sequence (P41516 whole entry): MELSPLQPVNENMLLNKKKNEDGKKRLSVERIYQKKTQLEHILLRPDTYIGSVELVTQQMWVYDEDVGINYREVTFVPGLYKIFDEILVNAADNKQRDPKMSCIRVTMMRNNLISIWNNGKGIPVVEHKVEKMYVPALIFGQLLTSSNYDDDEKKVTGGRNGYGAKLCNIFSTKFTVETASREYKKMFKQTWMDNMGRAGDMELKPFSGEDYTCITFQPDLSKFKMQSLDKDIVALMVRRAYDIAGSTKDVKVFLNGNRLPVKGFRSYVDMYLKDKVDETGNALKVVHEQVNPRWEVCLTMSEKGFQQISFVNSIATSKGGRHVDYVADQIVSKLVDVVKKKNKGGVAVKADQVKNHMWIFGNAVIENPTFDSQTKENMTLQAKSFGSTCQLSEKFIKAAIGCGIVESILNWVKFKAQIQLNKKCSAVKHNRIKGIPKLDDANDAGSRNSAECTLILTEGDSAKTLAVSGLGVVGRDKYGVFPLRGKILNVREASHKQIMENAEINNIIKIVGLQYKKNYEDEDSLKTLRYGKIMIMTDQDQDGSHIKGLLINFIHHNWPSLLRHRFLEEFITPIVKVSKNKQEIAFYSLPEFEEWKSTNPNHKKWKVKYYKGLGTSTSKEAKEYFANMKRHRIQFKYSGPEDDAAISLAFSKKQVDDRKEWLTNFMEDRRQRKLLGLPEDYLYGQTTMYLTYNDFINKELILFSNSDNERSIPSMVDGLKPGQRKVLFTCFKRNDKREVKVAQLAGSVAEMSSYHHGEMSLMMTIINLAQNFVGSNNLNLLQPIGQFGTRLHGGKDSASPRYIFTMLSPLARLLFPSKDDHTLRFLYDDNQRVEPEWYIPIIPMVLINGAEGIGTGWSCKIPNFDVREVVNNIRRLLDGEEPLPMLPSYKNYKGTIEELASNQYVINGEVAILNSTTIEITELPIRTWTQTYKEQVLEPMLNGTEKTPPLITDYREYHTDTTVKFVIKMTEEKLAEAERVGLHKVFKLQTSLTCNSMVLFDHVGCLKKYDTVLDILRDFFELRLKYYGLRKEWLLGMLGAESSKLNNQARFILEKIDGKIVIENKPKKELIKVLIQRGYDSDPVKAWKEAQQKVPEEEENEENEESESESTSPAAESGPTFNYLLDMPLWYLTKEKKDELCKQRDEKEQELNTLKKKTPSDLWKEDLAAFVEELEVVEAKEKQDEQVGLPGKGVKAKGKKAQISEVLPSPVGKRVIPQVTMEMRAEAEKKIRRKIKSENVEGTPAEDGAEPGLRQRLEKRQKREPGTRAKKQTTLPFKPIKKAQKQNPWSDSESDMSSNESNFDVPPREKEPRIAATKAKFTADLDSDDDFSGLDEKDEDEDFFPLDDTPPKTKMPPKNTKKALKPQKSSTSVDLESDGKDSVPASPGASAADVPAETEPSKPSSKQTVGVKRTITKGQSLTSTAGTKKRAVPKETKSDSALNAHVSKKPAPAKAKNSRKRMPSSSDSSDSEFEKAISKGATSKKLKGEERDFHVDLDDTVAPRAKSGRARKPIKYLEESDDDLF

## C[C@@H](CN1CC(=O)NC(=O)C1)N1CC(=O)NC(=O)C1 [dexrazoxane]
Top2β
  protein level of Top2β: time-dependent disappearance
Top2α
  level of the Top2α isozyme: no significant effect

## CC(C)C[C@@H](C=O)NC(=O)[C@H](CC(C)C)NC(=O)[C@H](CC(C)C)NC(=O)OCc1ccccc1 [MG132, N-[(Phenylmethoxy)carbonyl]-L-leucyl-N-[(1S)-1-formyl-3-methylbutyl]-L-leucinamide] (Cbz-Leu-Leu-Leu-aldehyde)
SV40-transformed MEFs
  effect on VP-16-stimulated plasmid integration: blocks
H9C2 cardiomyocytes
  effect on doxorubicin-induced comet tail moment: significantly reduced
MEFs
  effect on VP-16-induced DSBs: abolish
